Source: patent US4156016A, “Indole compounds and process for their preparation” (Hoffmann-La Roche Inc., priority 1977, dated 1979)
pIC50: −log10 of the molar value. Where two headings read alike, the source gives them in different places.

Experiments:
[1] = system: arachidonic acid induced diarrhea; experiment: Arachidonic acid diarrhea prevention (mice); format: in vivo, Carworth Farm CF-1 male mice; conditions: Mus musculus, po
Description: Carworth Farm CF-1 male mice weighing 18-20 grams were administered the test compound by either the oral or intraperitoneal route one hour prior to the intraperitoneal administration of 4 mg/kg of arachidonic acid (Hoffmann-La Roche Inc.). […] The diarrhea was graded on paper towels as follows: 0=solid pellet or no bowel movement; 1=slightly soft pellet with little or no wet ring formation; 2=moderately soft pellet with definite wet ring formation; 3=soft pellet with large wet ring formation; and 4=amorphous pellet with very large wet ring formation.
The calculation of the ED50 was made according to the method of Miller et al., Proc. Soc.

Prostaglandin synthetase = target: T1, Prostaglandin synthetase (Ovis aries, UniProt P05979); experiment: Prostaglandin synthetase inhibition; format: biochemical; conditions: read-out: PG synthetase IC50
T1 construct: from tissue
T1 sequence (P05979 25-600): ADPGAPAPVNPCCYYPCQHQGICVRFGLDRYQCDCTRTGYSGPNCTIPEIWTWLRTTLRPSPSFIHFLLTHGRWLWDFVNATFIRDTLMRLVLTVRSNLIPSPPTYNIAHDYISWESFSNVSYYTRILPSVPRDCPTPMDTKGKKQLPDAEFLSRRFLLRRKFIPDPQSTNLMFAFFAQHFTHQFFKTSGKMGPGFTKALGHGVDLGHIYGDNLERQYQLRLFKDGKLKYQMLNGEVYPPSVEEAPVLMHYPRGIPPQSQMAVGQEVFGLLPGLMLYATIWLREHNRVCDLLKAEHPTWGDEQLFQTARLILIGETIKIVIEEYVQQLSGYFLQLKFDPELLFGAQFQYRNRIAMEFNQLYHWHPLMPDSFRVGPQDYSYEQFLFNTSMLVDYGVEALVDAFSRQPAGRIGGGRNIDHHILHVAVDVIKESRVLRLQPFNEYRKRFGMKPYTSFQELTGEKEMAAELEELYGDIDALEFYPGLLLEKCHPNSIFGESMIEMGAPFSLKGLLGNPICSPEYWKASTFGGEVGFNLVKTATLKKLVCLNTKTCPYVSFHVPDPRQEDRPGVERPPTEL

[2] = system: Collagen-Induced Platelet Aggregation; experiment: Effect of compounds in whole blood: collagen-induced platelet aggregation after incubation in whole blood; format: cell-based, human; conditions: for Δ light transmission: mean of duplicate determinations; for inhibition at 1 µM / inhibition at 5 µM / inhibition at 10 µM / inhibition at 25 µM / inhibition at 50 µM / inhibition at 100 µM: read-out: percent inhibition
Description: Aliquots of citrated human blood (10 ml.) were exposed to different concentrations of the "nitrile" by mechanically shaking at room temperature for 5 minutes.

Acute toxicity in mice = conditions: mouse, in vivo
Description: CF-IS mice of both sexes weighing 17-25 grams were used. The compounds were ground in a mortar and suspended in 5% gum acacia for oral or intraperitoneal administration. Eight to ten mice were used per dose level. […] The LD50 was calculated by the method of Miller et al., Proc. Soc. Exp. Biol. Med., 57, pages 261-264 (1944).

[3] = Gastric ulcer induction (rats); set-up: species or system male Wistar rats; conditions: rat, in vivo, po
Description: The test is a modification of that described by Brodie et al., Gastroenterology, 53, pages 604-610 (1967). Male Wistar rats (Royal Hart Laboratories) were deprived of food for 18 hours prior to testing. Tap water was permitted ad libitum. Test compounds were administered orally four hours to autopsy. The rats were sacrificed under ethyl ether anesthesia, opened along the ventral midline and the stomachs removed. The stomach was divided along the lesser curvature, everted, rinsed in saline, and examined for the presence of focal hemorrhage. Ulcers were rated on an all or none basis for incidence and, in addition, each stomach is graded for severity of ulcers formed. Ulcer scores: 0=none, 1=trace, 2=mild, 3=moderate, and 4=severe. The results of the ulcer scores obtained were subjected to statistical analysis by the student `t` test.

[4] = Central and peripheral pharmacological activity (statement)
prostaglandin formation = experiment: Inhibition of prostaglandin formation (general statement)
[5] = Ulcerogenicity (general statement)

## N#Cc1[nH]c2ccc(C(O)(C(F)(F)F)C(F)(F)F)cc2c1-c1ccccc1 [nitrile, 3-Phenyl-5-[2,2,2-trifluoro-1-hydroxy-1-(trifluoromethyl)ethyl]indole-2-carbonitrile]
[1]
  ED50: 5 mg/kg
Prostaglandin synthetase
  pIC50: 6.30
[2]; 1 μM, Expt. I
  Δ light transmission: 18 units
[2]; 1 μM, Expt. II
  Δ light transmission: 19 units
[2]; 1 μM, Expt. III
  Δ light transmission: 27 units
[2]; 5 μM, Expt. I
  Δ light transmission: 14 units
[2]; 5 μM, Expt. II
  Δ light transmission: 15 units
[2]; 5 μM, Expt. III
  Δ light transmission: 20 units
[2]; 10 μM, Expt. I
  Δ light transmission: 13 units
[2]; 10 μM, Expt. II
  Δ light transmission: 13 units
[2]; 10 μM, Expt. III
  Δ light transmission: 17 units
[2]; 25 μM, Expt. I
  Δ light transmission: 9 units
[2]; 25 μM, Expt. II
  Δ light transmission: 10 units
[2]; 25 μM, Expt. III
  Δ light transmission: 13 units
[2]; 50 μM, Expt. I
  Δ light transmission: 8 units
[2]; 50 μM, Expt. II
  Δ light transmission: 9 units
[2]; 50 μM, Expt. III
  Δ light transmission: 10 units
[2]; 100 μM, Expt. I
  Δ light transmission: 4 units
[2]; 100 μM, Expt. II
  Δ light transmission: 4 units
[2]; 100 μM, Expt. III
  Δ light transmission: 6 units
[2]; Homo sapiens, Platelet, 1 μM, Expt. I
  inhibition at 1 µM: 10%
[2]; Homo sapiens, Platelet, 1 μM, Expt. II
  inhibition at 1 µM: 9.5%
[2]; Homo sapiens, Platelet, 1 μM, Expt. III
  inhibition at 1 µM: 10%
[2]; Homo sapiens, Platelet, 5 μM, Expt. I
  inhibition at 5 µM: 30%
[2]; Homo sapiens, Platelet, 5 μM, Expt. II
  inhibition at 5 µM: 29%
[2]; Homo sapiens, Platelet, 5 μM, Expt. III
  inhibition at 5 µM: 33%
[2]; Homo sapiens, Platelet, 10 μM, Expt. I
  inhibition at 10 µM: 35%
[2]; Homo sapiens, Platelet, 10 μM, Expt. II
  inhibition at 10 µM: 38%
[2]; Homo sapiens, Platelet, 10 μM, Expt. III
  inhibition at 10 µM: 43%
[2]; Homo sapiens, Platelet, 25 μM, Expt. I
  inhibition at 25 µM: 55%
[2]; Homo sapiens, Platelet, 25 μM, Expt. II
  inhibition at 25 µM: 52%
[2]; Homo sapiens, Platelet, 25 μM, Expt. III
  inhibition at 25 µM: 57%
[2]; Homo sapiens, Platelet, 50 μM, Expt. I
  inhibition at 50 µM: 60%
[2]; Homo sapiens, Platelet, 50 μM, Expt. II
  inhibition at 50 µM: 57%
[2]; Homo sapiens, Platelet, 50 μM, Expt. III
  inhibition at 50 µM: 67%
[2]; Homo sapiens, Platelet, 100 μM, Expt. I
  inhibition at 100 µM: 80%
[2]; Homo sapiens, Platelet, 100 μM, Expt. II
  inhibition at 100 µM: 81%
[2]; Homo sapiens, Platelet, 100 μM, Expt. III
  inhibition at 100 µM: 80%
[2]; Homo sapiens, Platelet, incubation in whole blood
  pIC50: 4.60
Acute toxicity in mice; ip
  LD50 at 120 h: 750 mg/kg
Acute toxicity in mice; po
  LD50 at 120 h: > 1000 mg/kg
[3]
  TD50 at 4 h: > 250 mg/kg
[4]
  central and peripheral pharmacological activity (in words): devoid of central and peripheral pharmacological activity
Prostaglandin formation
  inhibition of prostaglandin formation (in words): inhibit prostaglandin formation
[5]
  ulcerogenicity (in words): non-ulcerogenic
